Data reported in patent EP4793274A1, “SALT AND CRYSTAL FORM OF KIF18A INHIBITOR COMPOUND, PREPARATION METHOD THEREFOR AND USE THEREOF” (Hubei Bio-Pharmaceutical Industrial Technological Institute …, priority 2023, dated 2025).
Where a name gives a salt, the structure may show the parent alone. Read-outs that look alike come from different tables or passages of the source.

Assays:
[1] = Dynamic solubility at 37 °C in H2O, SGF, FaSSIF and FeSSIF (HPLC concentration, pH of filtrate, XRPD of residual solid); assay type: physicochemical; details: for solubility at 1 h / solubility at 2 h / solubility at 4 h / solubility at 24 h: feeding concentration 10 mg/mL, read-out: S: solubility; for FC: crystal form change: XRPD of residual solid; for FC: crystal form change / pH: listed as Crystal form B of sulfate; for pH: pH of filtrate
Procedure: 0.82 mL of glacial acetic acid and 1.18 g of NaCl were added to a 100 mL volumetric flask and completely dissolved by addition of purified water.
The solubility of each sample in H2O, SGF, FaSSIF, and FeSSIF was determined at different time points (1 h, 2 h, 4 h, and 24 h). […] 137-156. […] Table C-2. Summary of dynamic solubility test results at 37 °C

[2] = Hygroscopicity by dynamic vapor sorption (DVS); assay type: physicochemical; details: 25 °C/80% RH
Procedure: Dynamic vapor sorption (DVS) curves were acquired on a DVS IntrInsic from Surface Measurement Systems (SMS). The relative humidity at 25 °C was corrected with the deliquescence points of LiCl, Mg(NO3)2, and KCl. Table A-5. DVS test parameters
The percentage changes in mass of the samples when the humidity changed (0% RH to 95% RH) at a constant temperature of 25 °C were collected. 157-166.

[3] = Solid state stability (XRPD and HPLC purity); assay type: physicochemical; details: listed as Crystal form B of sulfate
Description: 167-171. […] Table C-3. Summary of solid state stability evaluation

[4] = physchem
Procedure: (§1) 100 mg of NaCl and 50 mg of Triton X-100 were weighed into a 50 mL volumetric flask and then completely dissolved by addition of purified water. 816 µL of 1 M hydrochloric acid was added, and the pH was adjusted to 1.8 with 1 M hydrochloric acid or 1 M NaOH solution. The mixed solution was brought to the volume by addition of purified water.
(§2) 340 mg of anhydrous NaH2PO4 and 620 mg of NaCl were weighed into a 100 mL volumetric flask, and then completely dissolved by addition of purified water. 55.44 µL of a 50% NaOH solution was then added, and the pH was adjusted to 6.5 with 1 M hydrochloric acid or 1 M NaOH solution. The mixed solution was brought to the volume by addition of purified water. Subsequently, 110 mg of SIF powder was weighed into a 50 mL volumetric flask and completely dissolved in the solution described above, and the mixed solution was brought to the volume.
(§3) Solids at a feeding concentration of 1 mg/mL (calculated based on free crystal form) were rotationally mixed with corresponding vehicles at room temperature. […] After sampling at each time point, the samples were centrifuged (at 10000 rpm) and filtered (through a 0.22 µm PTFE filter head), the HPLC concentrations and pH values of the filtrates were determined, and the centrifuged solid samples were subjected to XRPD analysis.

[5] = Solubility at room temperature in water, SGF and FaSSIF (HPLC concentration, pH of filtrate, XRPD of residual solid); details: for pH: pH of filtrate, listed as Crystal form B of sulfate
Procedure: as §1, §2, §3

**Q.** For Cc1cc(-c2cnn(-c3ccc(NS(=O)(=O)CCO)cc3N3CCC4(CC3)CC4)c2)nc(N2CCC(F)(F)CC2)n1 [crystal form B of the sulfate], which solubility at 1 h ([1]; FaSSIF, 1 h) is on record?
**A.** 53.9 µg/mL

**Q.** And the solubility at 2 h ([1]; FaSSIF, 2 h)?
**A.** 36.4 µg/mL

**Q.** And the solubility at 4 h ([1]; FaSSIF, 4 h)?
**A.** 28.1 µg/mL

**Q.** And the solubility at 24 h ([1]; FaSSIF, 24 h)?
**A.** 13.6 µg/mL

**Q.** And the solubility at 1 h ([1]; FeSSIF, 1 h)?
**A.** 194 µg/mL

**Q.** And the solubility at 2 h ([1]; FeSSIF, 2 h)?
**A.** 186 µg/mL

**Q.** And the solubility at 4 h ([1]; FeSSIF, 4 h)?
**A.** 166 µg/mL

**Q.** And the solubility at 24 h ([1]; FeSSIF, 24 h)?
**A.** 79 µg/mL

**Q.** What about the solubility at 1 h ([1]; SGF, 1 h) of the same compound?
**A.** 147 µg/mL

**Q.** And the solubility at 2 h ([1]; SGF, 2 h)?
**A.** 82.4 µg/mL

**Q.** What about the solubility at 4 h ([1]; SGF, 4 h) of the same compound?
**A.** 18.1 µg/mL

**Q.** And the solubility at 24 h ([1]; SGF, 24 h)?
**A.** 18.5 µg/mL

**Q.** And the “FC: crystal form change” value ([1]; FaSSIF, 1 h)?
**A.** Yes

**Q.** And the “FC: crystal form change” value ([1]; FaSSIF, 2 h)?
**A.** Yes

**Q.** And the “FC: crystal form change” value ([1]; FaSSIF, 4 h)?
**A.** Yes

**Q.** And the “FC: crystal form change” value ([1]; FaSSIF, 24 h)?
**A.** Yes

**Q.** What about the “FC: crystal form change” value ([1]; FeSSIF, 1 h) of the same compound?
**A.** Yes

**Q.** What about the “FC: crystal form change” value ([1]; FeSSIF, 2 h) of the same compound?
**A.** Yes

**Q.** And the “FC: crystal form change” value ([1]; FeSSIF, 4 h)?
**A.** Yes

**Q.** What about the “FC: crystal form change” value ([1]; FeSSIF, 24 h) of the same compound?
**A.** Yes

**Q.** What about the “FC: crystal form change” value ([1]; H2O, 1 h) of the same compound?
**A.** Yes

**Q.** What about the “FC: crystal form change” value ([1]; H2O, 2 h) of the same compound?
**A.** Yes

**Q.** What about the “FC: crystal form change” value ([1]; H2O, 4 h) of the same compound?
**A.** Yes

**Q.** And the “FC: crystal form change” value ([1]; H2O, 24 h)?
**A.** Yes

**Q.** And the “FC: crystal form change” value ([1]; SGF, 1 h)?
**A.** Yes

**Q.** And the “FC: crystal form change” value ([1]; SGF, 2 h)?
**A.** Yes

**Q.** What about the “FC: crystal form change” value ([1]; SGF, 4 h) of the same compound?
**A.** Yes

**Q.** What about the “FC: crystal form change” value ([1]; SGF, 24 h) of the same compound?
**A.** Yes

**Q.** And the pH ([1]; FaSSIF, 1 h)?
**A.** 2.06

**Q.** What about the pH ([1]; FaSSIF, 2 h) of the same compound?
**A.** 2.13

**Q.** What about the pH ([1]; FaSSIF, 4 h) of the same compound?
**A.** 2.07

**Q.** What about the pH ([1]; FaSSIF, 24 h) of the same compound?
**A.** 2.08

**Q.** What about the pH ([1]; FeSSIF, 1 h) of the same compound?
**A.** 4.50

**Q.** And the pH ([1]; FeSSIF, 2 h)?
**A.** 4.49

**Q.** And the pH ([1]; FeSSIF, 4 h)?
**A.** 4.48

**Q.** And the pH ([1]; FeSSIF, 24 h)?
**A.** 4.48

**Q.** What about the pH ([1]; H2O, 1 h) of the same compound?
**A.** 1.50

**Q.** What about the pH ([1]; H2O, 24 h) of the same compound?
**A.** 1.56

**Q.** And the solubility at 1 h ([1]; water, H2O, 1 h)?
**A.** 38.2 µg/mL

**Q.** And the solubility at 2 h ([1]; water, H2O, 2 h)?
**A.** 18 µg/mL

**Q.** What about the solubility at 4 h ([1]; water, H2O, 4 h) of the same compound?
**A.** 11.1 µg/mL

**Q.** What about the solubility at 24 h ([1]; water, H2O, 24 h) of the same compound?
**A.** 3 µg/mL

**Q.** What about the vapor sorption values [2] of the same compound?
**A.** 0.445%

**Q.** What about the “HPLC results Purity (area%)” value ([3]; 25 °C/60% RH/open, 1 week) of the same compound?
**A.** 97.97 area%

**Q.** And the “HPLC results Purity (area%)” value ([3]; 40 °C/75% RH/open, 1 week)?
**A.** 97.98 area%

**Q.** What about the “HPLC results Purity (area%)” value ([3]; 80 °C/sealed, 1 day) of the same compound?
**A.** 97.98 area%

**Q.** What about the “HPLC results Relative to starting (%)” value ([3]; 80 °C/sealed, 1 day) of the same compound?
**A.** 100.0%

**Q.** And the “HPLC results Purity (area%)” value ([3]; Starting)?
**A.** 98.00 area%

**Q.** What about the Crystal form ([3]; XRPD after 25 °C/60% RH/open, 1 week) of the same compound?
**A.** Crystal form B of sulfate

**Q.** And the Crystal form ([3]; XRPD after 40 °C/75% RH/open, 1 week)?
**A.** Crystal form B of sulfate

**Q.** And the Crystal form ([3]; XRPD after 80 °C/sealed, 1 day)?
**A.** Crystal form B of sulfate

**Q.** What about the solubility at 2 h ([4]; fassif) of the same compound?
**A.** 61.6 µg/mL

**Q.** What about the solubility at 24 h ([4]; fassif) of the same compound?
**A.** 33.8 µg/mL

**Q.** And the solubility at 2 h ([4]; sgf)?
**A.** 54.5 µg/mL

**Q.** What about the solubility at 24 h ([4]; sgf) of the same compound?
**A.** 25 µg/mL

**Q.** And the solubility at 24 h ([4]; water)?
**A.** 0.1 µg/mL

**Q.** And the “S: solubility” value ([5]; H2O, 2 h, feeding concentration 1 mg/mL)?
**A.** <LOQ

**Q.** And the pH ([5]; FaSSIF, 2 h)?
**A.** 6.3

**Q.** And the pH ([5]; FaSSIF, 24 h)?
**A.** 6.2

**Q.** What about the pH ([5]; H2O, 2 h) of the same compound?
**A.** 2.7

**Q.** And the pH ([5]; H2O, 24 h)?
**A.** 2.5

**Q.** And the pH ([5]; SGF, 2 h)?
**A.** 1.8

**Q.** What about the pH ([5]; SGF, 24 h) of the same compound?
**A.** 1.8
